Measurements taken from patent US8785460B2, “Tricyclic compounds and use thereof” (Takeda Pharmaceutical Company Limited, priority 2008, dated 2014).

How the values were obtained:
human CRF1 receptor = target: T1, human CRF1 receptor (Homo sapiens, UniProt P34998); assay: Measurement of CRF Binding Inhibitory Rate (receptor binding experiment with 125I-CRF); settings: human CRF1 receptor expressing CHO cellular membrane fraction, 50 pM 125I-CRF, room temperature 1.5 hr, 0.05 nM to 10 μM of compound; read-out: IC50 values (CRF binding inhibition)
T1 construct: expressed in transfected cells; host or cells: CHO cells (membrane fraction)
T1 sequence (P34998 24-415): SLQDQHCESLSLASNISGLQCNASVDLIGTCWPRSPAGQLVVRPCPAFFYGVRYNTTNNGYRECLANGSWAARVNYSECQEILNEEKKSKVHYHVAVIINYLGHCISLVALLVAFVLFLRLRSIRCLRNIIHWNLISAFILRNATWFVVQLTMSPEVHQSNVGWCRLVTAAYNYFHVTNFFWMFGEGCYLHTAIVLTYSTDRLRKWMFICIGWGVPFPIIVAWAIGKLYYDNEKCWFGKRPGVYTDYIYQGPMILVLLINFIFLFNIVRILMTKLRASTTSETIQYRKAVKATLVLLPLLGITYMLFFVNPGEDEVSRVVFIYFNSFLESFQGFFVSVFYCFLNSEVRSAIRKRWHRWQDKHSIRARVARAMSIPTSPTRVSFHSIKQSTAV

Row | SMILES | IC50 (human CRF1 receptor) [µM] | melting point [°C]
1 | Cc1nc(N(C)C)ccc1N1CCCn2c1nc1c(Cl)ccc(C(OC(F)F)C(F)(F)F)c12 (centres unmarked) [Example 298, 5-{9-Chloro-6-[1-(difluoromethoxy)-2,2,2-trifluoroethyl]-3,4-dihydropyrimido[1,2-a]benzimidazol-1(2H)-yl}-N,N,6-trimethylpyridin-2-amine] | < 1 | 233 to 235
2 | CCC(F)c1ccc(Cl)c2nc3n(c12)CCCN3c1ccc(Cl)cc1Cl (centres unmarked) [Example 304, 9-Chloro-1-(2,4-dichlorophenyl)-6-(1-fluoropropyl)-1,2,3,4-tetrahydropyrimido[1,2-a]benzimidazole] | < 1 | 172 to 174
3 | CCC(OC1CC1)c1ccc(Cl)c2nc3n(c12)CCCN3c1ccc(Cl)cc1Cl (centres unmarked) [Example 306, 9-Chloro-6-[1-(cyclopropyloxy)propyl]-1-(2,4-dichlorophenyl)-1,2,3,4-tetrahydropyrimido[1,2-a]benzimidazole] | < 1 | 147 to 149
4 | FC(F)(F)C(OC1CC1)c1ccc(Cl)c2nc3n(c12)CCCN3c1ccc(Cl)cc1Cl (centres unmarked) [Example 308, 9-Chloro-6-[1-(cyclopropyloxy)-2,2,2-trifluoroethyl]-1-(2,4-dichlorophenyl)-1,2,3,4-tetrahydropyrimido[1,2-a]benzimidazole] | < 1 | 197 to 200
5 | COC(c1ccc(Cl)c2nc3n(c12)CCCN3c1ccc(Cl)cc1Cl)C(F)(F)F (centres unmarked) [Example 309, 9-Chloro-1-(2,4-dichlorophenyl)-6-(2,2,2-trifluoro-1-methoxyethyl)-1,2,3,4-tetrahydropyrimido[1,2-a]benzimidazole] | < 1 | 161 to 163
6 | CCOC(c1ccc(Cl)c2nc3n(c12)CCCN3c1ccc(Cl)cc1Cl)C(F)(F)F (centres unmarked) [Example 310, 9-Chloro-1-(2,4-dichlorophenyl)-6-(1-ethoxy-2,2,2-trifluoroethyl)-1,2,3,4-tetrahydropyrimido[1,2-a]benzimidazole] | < 1 | 129 to 131
7 | CC(=O)OC(c1ccc(Cl)c2nc3n(c12)CCCN3c1ccc(Cl)cc1Cl)C(F)(F)F (centres unmarked) [Example 311, 1-[9-Chloro-1-(2,4-dichlorophenyl)-1,2,3,4-tetrahydropyrimido[1,2-a]benzimidazol-6-yl]-2,2,2-trifluoroethyl acetate] | < 1 | 197 to 199
8 | Clc1ccc(N2CCCn3c2nc2c(Cl)ccc(N(C4CC4)C4CC4)c23)c(Cl)c1 [Example 320, 9-Chloro-N,N-dicyclopropyl-1-(2,4-dichlorophenyl)-1,2,3,4-tetrahydropyrimido[1,2-a]benzimidazol-6-amine] | < 1 | 211 to 213
9 | Cc1cc(C#N)ccc1N1CCCn2c1nc1c(Cl)ccc(C(OC(F)F)C(F)(F)F)c12 (centres unmarked) [Example 325, 4-{9-chloro-6-[1-(difluoromethoxy)-2,2,2-trifluoroethyl]-3,4-dihydropyrimido[1,2-a]benzimidazol-1(2H)-yl}-3-methylbenzonitrile] | < 1 | 195 to 197
10 | CCC(OC(C)=O)c1ccc(Cl)c2nc3n(c12)CCCCN3c1ncc(Cl)cc1Cl (centres unmarked) [Example 329, 1-[10-Chloro-1-(3,5-dichloropyridin-2-yl)-2,3,4,5-tetrahydro-1H-[1,3]diazepino[1,2-a]benzimidazol-7-yl]propyl acetate] | < 1 | 158 to 160
11 | CCC(OC(C)=O)c1ccc(Cl)c2nc3n(c12)CCCCN3c1ccc(OC)cc1Cl (centres unmarked) [Example 334, 1-[10-Chloro-1-(2-chloro-4-methoxyphenyl)-2,3,4,5-tetrahydro-1H-[1,3]diazepino[1,2-a]benzimidazol-7-yl]propyl acetate] | < 1 | 177 to 179
12 | CCN(CC)c1cc(F)cc2nc3n(c12)CCCN3c1ccc(Cl)cc1Cl [Example 335, 1-(2,4-Dichlorophenyl)-N,N-diethyl-8-fluoro-1,2,3,4-tetrahydropyrimido[1,2-a]benzimidazol-6-amine] | < 1 | 142 to 145
13 | CCC(CC)c1ccc(Cl)c2nc3n(c12)CCCN3c1cnc(N(C)C)cc1C [Example 336, 5-[9-Chloro-6-(1-ethylpropyl)-3,4-dihydropyrimido[1,2-a]benzimidazol-1(2H)-yl]-N,N,4-trimethylpyridin-2-amine] | < 1 | 228 to 230
14 | CCC(CC)c1ccc(Cl)c2nc3n(c12)CCCCN3c1cnc(Br)c(C)c1 [Example 338, 1-(6-Bromo-5-methylpyridin-3-yl)-10-chloro-7-(1-ethylpropyl)-2,3,4,5-tetrahydro-1H-[1,3]diazepino[1,2-a]benzimidazole] | < 1 | 137 to 140
15 | CCC(CC)c1ccc(Cl)c2nc3n(c12)CCCCN3c1ncc(C#N)cc1C [Example 339, 6-[10-Chloro-7-(1-ethylpropyl)-2,3,4,5-tetrahydro-1H-[1,3]diazepino[1,2-a]benzimidazol-1-yl]-5-methylpyridine-3-carbonitrile] | < 1 | 213
16 | CCC(CC)c1ccc(Cl)c2nc3n(c12)CCCCN3c1ncc(C(N)=O)cc1C [Example 340, 6-[10-Chloro-7-(1-ethylpropyl)-2,3,4,5-tetrahydro-1H-[1,3]diazepino[1,2-a]benzimidazol-1-yl]-5-methylpyridine-3-carboxamide] | < 1 | 234 to 235
17 | CCC(CC)c1ccc(Cl)c2nc3n(c12)CCCCN3c1ncc(S(C)(=O)=O)cc1C [Example 341, 10-Chloro-7-(1-ethylpropyl)-1-[3-methyl-5-(methylsulfonyl)pyridin-2-yl]-2,3,4,5-tetrahydro-1H-[1,3]diazepino[1,2-a]benzimidazole] | < 1 | 137 to 139
18 | CCC(CC)c1ccc(Cl)c2nc3n(c12)CCCCN3c1ncc(C(C)=O)cc1C [Example 342, 1-{6-[10-Chloro-7-(1-ethylpropyl)-2,3,4,5-tetrahydro-1H-[1,3]diazepino[1,2-a]benzimidazol-1-yl]-5-methylpyridin-3-yl}ethanone] | < 1 | 142
19 | CCC(CC)c1ccc(Cl)c2nc3n(c12)CCCCN3c1c(C)noc1C [Example 343, 10-Chloro-1-(3,5-dimethylisoxazol-4-yl)-7-(1-ethylpropyl)-2,3,4,5-tetrahydro-1H-[1,3]diazepino[1,2-a]benzimidazole] | < 1 | 163 to 164
20 | COc1ccc(N2CCCn3c2nc2c(Cl)ccc(C(OCC(F)(F)F)C4CC4)c23)c(C)c1 (centres unmarked) [Example 353, 9-Chloro-6-[cyclopropyl(2,2,2-trifluoroethoxy)methyl]-1-(4-methoxy-2-methylphenyl)-1,2,3,4-tetrahydropyrimido[1,2-a]benzimidazole] | < 1 | 157 to 158
21 | COc1ccc(N2CCCn3c2nc2c(Cl)ccc(C(O)(C4CC4)C4CC4)c23)c(C)c1 [Example 354, [9-Chloro-1-(4-methoxy-2-methylphenyl)-1,2,3,4-tetrahydropyrimido[1,2-a]benzimidazol-6-yl](dicyclopropyl)methanol] | < 1 | 181 to 182
22 | CCOc1ccc(N2CCCn3c2nc2c(Cl)ccc(C(OC(F)F)C(F)(F)F)c23)c(C)c1 (centres unmarked) [Example 356, 9-Chloro-6-[1-(difluoromethoxy)-2,2,2-trifluoroethyl]-1-(4-ethoxy-2-methylphenyl)-1,2,3,4-tetrahydropyrimido[1,2-a]benzimidazole] | < 1 | 179 to 182
23 | Cc1cc(OC(C)C)ccc1N1CCCn2c1nc1c(Cl)ccc(C(OC(F)F)C(F)(F)F)c12 (centres unmarked) [Example 357, 9-Chloro-6-[1-(difluoromethoxy)-2,2,2-trifluoroethyl]-1-[2-methyl-4-(propan-2-yloxy)phenyl]-1,2,3,4-tetrahydropyrimido[1,2-a]benzimidazole] | < 1 | 198 to 204
24 | CCN(CC)c1cccc2nc3n(c12)CC(OC)CCN3c1ccc(Cl)cc1Cl (centres unmarked) [Example 358, 1-(2,4-Dichlorophenyl)-N,N-diethyl-4-methoxy-2,3,4,5-tetrahydro-1H-[1,3]diazepino[1,2-a]benzimidazol-7-amine] | < 1 | 120 to 122
25 | CCN(CC)c1cccc2nc3n(c12)C=CCCN3c1ccc(Cl)cc1Cl [Example 362, 1-(2,4-Dichlorophenyl)-N,N-diethyl-2,3-dihydro-1H-[1,3]diazepino[1,2-a]benzimidazol-7-amine] | < 1 | 105 to 106
26 | CCN(CC)c1cccc2nc3n(c12)CC(N)CCN3c1ccc(Cl)cc1Cl (centres unmarked) [Example 363, 1-(2,4-Dichlorophenyl)-N^7,N^7-diethyl-2,3,4,5-tetrahydro-1H-[1,3]diazepino[1,2-a]benzimidazole-4,7-diamine] | < 1 | 149 to 151
27 | CCN(CC)c1ccc(F)c2nc3n(c12)CCCN3c1ccc(Cl)cc1Cl [Example 365, 1-(2,4-Dichlorophenyl)-N,N-diethyl-9-fluoro-1,2,3,4-tetrahydropyrimido[1,2-a]benzimidazol-6-amine] | < 1 | 170 to 172
28 | COc1ccc(C(O)(C2CC2)C2CC2)c2c1nc1n2CCCN1c1ccc(Cl)cc1Cl [Example 369, Dicyclopropyl[1-(2,4-dichlorophenyl)-9-methoxy-1,2,3,4-tetrahydropyrimido[1,2-a]benzimidazol-6-yl]methanol] | < 1 | 219 to 220
